Source: patent US5610171A, “Inhibition of metastasis in patients having cancer with pyridyloxazole-2-ones” (Merrell Pharmaceuticals Inc., priority 1995, dated 1997)
Where two headings read alike, the source gives them in different places.

Key:
membrane-associated PKC = assay: Inhibition of B16F1 membrane-associated PKC activity; assay type: biochemical, murine; settings: B16F1 membrane fraction
Method: (§1) Protein Kinase C Preparation
(§2) Cytostolic and membrane-associated PKC was prepared as described in Thomas, T. P., Gopalakrishna, R. and Anderson, W. B. Hormone- and tumor promoter-induced activation of membrane association of protein kinase C in intact cells, Methodsin Enzymology, 141: 399-411, 1987. Sub-confluent B16F1 cultures (4×10^7 cells total) were washed twice with phosphate buffered saline (PBS), pH 7.2 and then twice with buffer A (20 mM Tris, pH 7.5, 2 mM EDTA, 0.5 mM EGTA, […], 2 mM phenylmethylsulfonyl fluoride (PMSF), and 2 μg/ml leupeptin). Cells were scraped from the plates in buffer A, homogenized (40 strokes) and sedimented by centrifugation for 1 hour at 100,000 g. The cytosol was stored on ice while the particulate fraction was washed with buffer B (20 mM Tris, pH 7.2, 2 mM EDTA, 0.5 mM EGTA, and 2 mM (PMSF). The membranes were resuspended with buffer B and homogenized with 10 strokes. Nonidet P-40 (1% final concentration) was added and the mixture was incubated for 30 minutes at 4° C. in a rotating mixer. Nonsolubilized material was removed by centrifugation for 10 minutes at 1400 g. Cytostolic and membrane-bound PKC was partially purified by chromatography over 1 ml columns of DE-52 (Whatman) equilibrated with buffer B. The enzyme was applied to the column and washed with 2×3 ml buffer B. Elution of PKC was then effected by the addition of 2 ml buffer B containing 100 mM NaCl.
(§3) PKC was quantitated as described in Thomas et al., ibid. The assay contained 20 mM Tris (pH 7.5), 0.75 mM CaCl, 10 mM magnesium acetate, […] histone III-S, 0.25 μg/ml leupeptin, 100 μM [gamma-^32 p]-ATP (120 cpm/pmol), 0.96 μg/ml phosphatidylserine, and 0.0064 μg/ml 1,2-diolein in a total assay volume of 250 μl. Blanks contained no calcium or phospholipids. Incubation was for 5 minutes at 30° C. at which point the reaction was terminated by the addition of 1 ml 25% trichloroacetic acid (TCA). Samples were applied to Whatman GF/B filters, the tube rinsed twice with 5% TCA and the filter then washed 5 times with 5% TCA.

cytosolic PKC = assay: Inhibition of B16F1 cytosolic PKC activity; assay type: biochemical, murine; settings: B16F1 cytosol fraction
Method: as §1, §2, §3
^a Subconfluent B16F1 cells were harvested and cytosol and membrane
fractions prepared as described in Materials and Methods. PKC activity wa
then measured in the presence of the drugs listed.

B16F1 cells = assay: Experimental lung metastasis assay (B16F1 cells treated in culture, then injected intravenously into C57BL/6 mice); assay type: in vivo, murine (C57BL/6 mice); settings: Mus musculus, B16-F1, iv, read-out: B16 Metastasis IC50
Method: Experimental Metastasis Assay
Sub-confluent B16F1 cells were harvested by washing with HBSS followed by trypsinization for 1 minute. The cells were sedimented by centrifugation (250 g, 5 minutes) and washed twice with HBSS. Viable cells were counted after dilution with trypan blue. A single-cell suspension of 10^5 cells in 0.2 ml HBSS was injected intravenously into 16-18 C57BL/6 mice via the tail vein. Three weeks later, the number of metastatic foci in the lung were counted.

[1] = system: SP1 mouse mammary adenocarcinoma cells; settings: cells normally do not metastasize; cited from earlier work
[2] = system: B16F1 cells / human umbilical vein endothelial cells (HUVEC); assay: Adhesion of B16F1 melanoma cells to endothelial cells (HUVEC); assay type: cell-based, murine B16F1 cells; human HUVEC
Method: Adhesion of Tumor Cells to Endothelial Cells
Round 15 mm Thermanox tissue culture cover slips from Lux were placed in Corning 12-well, 22 mm diameter tissue culture clusters. HUVEC (2×10^6) were added to each well and grown to confluency. Sub-confluent B16F1 cells were labeled with 1 μCi/ml [^3 H]-thymidine (New England Nuclear, 78.5 Ci/mmol) for 24 hours at 37° C.
In preparation for the adhesion assay, the tissue culture wells containing either HUVEC or no cells were blocked with MEM containing 20 mM HEPES and 1% BSA for 1 hour at 37° C. B16F1 cells were removed from the flasks as described above for adhesion to basement membrane proteins and diluted to a density of 2×10^5 viable cells/ml in MEM (viability determined by trypan blue exclusion).
Blocking solution was aspirated from the wells and 1 ml of cells were added per well and incubated at 37° C. Nonadherent cells were washed from coverslips as described in Wright, P. S., Cross-Doersen, D., McCann, P. P. and Bitonti, A. J., Plasmodium falciparum: a rapid assay for cytoadherence of [^3 H]-hypoxanthine-labeled infected erythrocytes to human melanoma cells, Exp. Parasitol., 71: 346-349, 1990. Coverslips were retrieved from the well with forceps and dipped 10 times into a beaker of 100 ml MEM. Coverslips were placed into scintillation vials and counted in 10 ml Beckman Ready Protein.
B16F1 cells were treated with 4-propyl-5(4-pyridinyl)-
(3H)-oxazolone for 24 hours at 37° C. Cells were then
harvested and added to wells containing confluent HUVEC
cells and incubated for the time indicated at 37° C. Details
are given in Materials and Methods.

fibrinogen = assay: Adhesion of B16F1 cells to fibrinogen; assay type: cell-based; settings: 24 hours
Method: (§4) Adhesion of B16F1 Cells to Basement Membrane Proteins
(§5) Adhesion proteins (2 μg/well) were coated onto Immulon I Removawells from Dynatech and incubated for 1 hour at 37° C. The wells were then blocked for 1 hour with 400 μl PBS, pH 7.2 containing 1% bovine serum albumin (BSA) at 37° C. Prior to addition of the cell suspension, the blocking solution was aspirated.
(§6) Sub-confluent cells were washed twice with HBSS and removed form flasks by incubation for 10 minutes at 37° C. with PBS (pH 7.2), 2 mM EDTA, and 1% BSA. The cells were washed twice with MEM containing 20 mM HEPES and 0.1% BSA and resuspended in the same medium to give a cell density of […].
(§7) Cells were added to wells in 50 μl (5×10^4 cells) and incubated at 37° C. The wells were aspirated and washed three times with 400 μl PBS (pH 7.2) containing 0.1% BSA. Wells were detached and counted in 5 ml Beckman Ready Protein. Blanks were not coated with protein but were blocked with BSA as described above.

collagen IV = assay: Adhesion of B16F1 cells to collagen IV; assay type: cell-based; settings: 24 hours
Method: as §4, §5, §6, §7

[3] = system: Lewis lung carcinoma cells; settings: cited from earlier work
[4] = system: B16 murine melanoma cells; settings: cells treated in vitro, intravenous injection into mice; cited from earlier work
[5] = cells exposed to drugs for 24 hours, nodules counted three weeks later

What does the source list for `Cc1[nH]c(=O)oc1-c1ccncc1` [Compound 2, 4methyl-5-(4-pyridinyl)-2(3H)-oxazolone]?
IC50 (membrane-associated PKC): 250 µM; IC50 (cytosolic PKC): 500 µM; IC50 (B16F1 cells; [5]): 36 µM

What does the source list for `CCc1[nH]c(=O)oc1-c1ccnc2ccccc12` [Compound 3, 4ethyl-5-(4-quinolinyl)-2(3H)-oxazolone]?
IC50 (membrane-associated PKC): 15 µM; IC50 (cytosolic PKC): 47 µM; IC50 (B16F1 cells; [5]): 68 µM

Which results are given for `CCCc1[nH]c(=O)oc1-c1ccnc2ccccc12` [Compound 4, 4propyl-5-(4-quinolinyl)-2(3H)-oxazolone]?
IC50 (membrane-associated PKC): 94 µM; IC50 (cytosolic PKC): 62 µM

With `CNc1ccc2oc(C[C@H]3O[C@@]4(CC[C@H]3C)O[C@H]([C@H](C)C(=O)c3ccc[nH]3)[C@H](C)C[C@H]4C)nc2c1C(=O)O` [Compound A23187] as the compound, how does the “metastasis from the primary tumor” value [1] read?
Its value is “resulted in metastasis from the primary tumor”.

With `CC1CNCCN1S(=O)(=O)c1cccc2cnccc12` (stereo not shown) [Compound H-7, reference compound] as the compound, how does the IC50 (membrane-associated PKC) read?
Its IC50 is 71 µM.

And the “adherence to HUVEC” value [2]?
The value was “Neither H-7 nor staurosporine inhibited adherence”.

And the IC50 (cytosolic PKC)?
Its IC50 is 180 µM.

What about the IC50 (B16F1 cells) of the same compound?
The IC50 was 12.5 µM.

What about the adhesion to fibrinogen (fibrinogen) of the same compound?
The adhesion to fibrinogen was “Neither H-7 nor staurosporine inhibited adherence”.

And the “adhesion to collagen IV” value (collagen IV)?
The value was “Neither H-7 nor staurosporine inhibited adherence”.

What does the source list for `CCCCCCCCCCCCCC(=O)O[C@@H]1[C@@H](C)[C@@]2(O)[C@@H](C=C(CO)C[C@]3(O)C(=O)C(C)=C[C@@H]23)[C@@H]2C(C)(C)[C@]12OC(C)=O` [PMA, phorbol-12-myristate-13-acetate]?
adhesion to endothelial cells [3]: enhancement of adhesion to endothelial cells; number of metastatic foci in lungs [4]: increased numbers of metastatic foci in lungs; metastasis from the primary tumor [1]: resulted in metastasis from the primary tumor

Which “adherence to HUVEC” value [2] does the source give for `CN[C@@H]1C[C@H]2O[C@@](C)([C@@H]1OC)n1c3ccccc3c3c4c(c5c6ccccc6n2c5c31)C(=O)NC4` [Staurosporine, reference compound] here?
Its value is “Neither H-7 nor staurosporine inhibited adherence”.

And the IC50 (cytosolic PKC)?
The IC50 was 0.019 µM.

And the adhesion to fibrinogen (fibrinogen)?
The adhesion to fibrinogen was “Neither H-7 nor staurosporine inhibited adherence”.

What about the “adhesion to collagen IV” value (collagen IV) of the same compound?
The value was “Neither H-7 nor staurosporine inhibited adherence”.
